US20210340629A1, “BIOMARKERS FOR CANCER THERAPY” (The Council of the Queensland Institute of Medical Research, priority 2018, published 2021)

How the values were obtained:
[1] = tested on: normal melanocytes; assay: Cell viability by MTT assay, normal melanocytes; format: cell-based; conditions: 5 μM, 48 hours, FIG. 2
Method: (§1) UNC0642 was purchased from Sigma Aldrich. The panel of human melanoma cell lines, derived from cutaneous melanomas, is shown in Table 1 and the cells have all been previously described. Cells were maintained in Roswell Park Memorial Institute (RPMI) 1640 supplemented with 10% fetal bovine serum (FBS), 100 U/mL penicillin, and 100 µg/mL streptomycin in a humidified atmosphere of 5% CO2 at 37° C. Normal melanocytes were grown in Clonetics™ MGM™-4 Melanocyte Growth Medium-4 supplemented with CaCl2, phorbol-12-myristate 13-acetate (PMA), recombinant human fibroblast growth factor basic (rhFGF-B), recombinant human insulin (rh-insulin), hydrocortisone, bovine pituitary extract (BPE), FBS and GA-1000 (30 μg/ml Gentamycin and 15 ng/ml Amphotericin) (Lonza).
(§2) For proliferation studies, cells (5×10^3) were seeded in 96-place wells and allowed to adhere overnight, and incubated in fresh growth medium in the presence of either the G9a inhibitor UNC0642 (Sigma Aldrich) or the vehicle control DMSO (Sigma Aldrich). Proliferation was evaluated via real-time imaging using IncuCyte Zoom (Essen BioScience) and/or by performing a 3-(4,5-dimethylthiazol-2-yl)-2,5-diphenyltetrazolium bromide ([…]) assay. After monitoring the cells, 20 μL of MTT (5 mg/mL; Sigma-Aldrich) was added. […] The absorbance value (optical density) of each well was measured at 570 nm.

[2] = tested on: D20 melanoma cells; assay: In vivo tumor growth analysis, D20 melanoma xenograft; design: species or system SCID mice; conditions: 5 mg/kg every two days for two weeks, vs vehicle control
Method: To determine the effect of inhibiting G9a on tumor growth, 6-8 week old SCID mice were subcutaneously injected with D20 BRAF mutant cutaneous melanoma cells. Palpable tumors were allowed to establish (approx. 10 days) before UNC0642 was administered at 5 mg/kg every two days for two weeks. The D20 cell line was used in the subcutaneous model as it had been shown previously to be tumorigenic in vivo and was also sensitive to the drug in vitro.
Groups of 8 SCID mice per treatment group were used for xenograft studies to ensure adequate power to detect biological differences. All experiments were approved by the QIMR Berghofer Medical Research Institute Animal Ethics Committee. D20 melanoma cells (2×106) were mixed 1:1 ratio with Growth factor-reduced Matrigel (BD Biosciences) and injected subcutaneously into the flank of 6-8 week old mice in 100 μL volume (day 0) and treatments, either DMSO or UNC0642 at 5 mg/kg were administered as indicated in the figure legends. Tumor volumes (width2×length/2) were measured using a digital calliper, and presented as mean±SD. All animals were sacrificed at the same time and the tumors were dissected for further analysis.

[3] = tested on: MAP1LC3B; assay: MAP1LC3B expression in excised D20 xenograft tumors (qRT-PCR, immunohistochemistry); format: in vivo, SCID mice; conditions: 5 mg/kg
Method: Quantitative RT-PCR and ChIP assays were conducted as previously described (Lee et al. (2010) Mol Cell 39, 71-85). Briefly, total RNA was isolated from either the tumor cells or from xenografts using Trizol (Invitrogen) and reverse transcription was performed from 2 μg of total RNA using the Superscript III cDNA synthesis system (Invitrogen). The abundance of mRNA was detected by an ABI VIIA7 system with SYBR Green Master Mix (Life Technologies). Primer pairs were designed to amplify 90-150 bp mRNA specific fragments and were confirmed as unique products by melting curve analysis. The quantity of mRNA was calculated using the ΔΔCt method and normalized to HPRT. All reactions were performed in triplicates.
Groups of 8 SCID mice per treatment group were used for xenograft studies to ensure adequate power to detect biological differences. All experiments were approved by the QIMR Berghofer Medical Research Institute Animal Ethics Committee. […] Tumor volumes (width2×length/2) were measured using a digital calliper, and presented as mean±SD. […]
Tumor sections were fixed in 4% paraformaldehyde. […] Aperio ImageScope software was used for imaging and quantitation of 5 non-overlapping tumor regions and evaluating the number of positive pixels per unit area in each region. Empty areas were manually excluded from quantification.
Quantitative RT-PCR was performed as described above.

[4] = tested on: D05 and C092 melanoma cell lines; assay: Cell cycle analysis (flow cytometric analysis); format: cell-based, human; conditions: data not shown
[5] = tested on: LC3B; assay: EGFP-LC3B immunofluorescence analysis (punctate pattern); format: cell-based, human; conditions: D05 and C092 cell lines, 5 μM, 8 hours, data not shown
Method: Retroviral constructs expressing short hairpin RNA to G9a (shG9a) or a non-silencing control (shNS) were used as previously described (Casciello et al. (2017) Proc Natl Acad Sci USA 114, 7077-7082). pBABE-puro mCherry-EGFP-LC3B was obtained from Addgene (plasmid #22418) (N'Diaye et al. (2009) EMBO reports 10, 173-179). The viral supernatants were prepared by co-transfecting the constructs with pUMVC3 and pVSV-G into HEK293T cells using Superfect transfection reagent (Qiagen). The supernatants were harvested and used to infect cells in medium, which contained 8 μg/ml polybrene. Cell medium was replaced and fresh growth medium was added after 24 h. Cells were harvested 72 h later or selected using 1 μg/ml of Puromycin sulfate.
Stable cells expressing EGFP-LC3B construct were treated with DMSO, UNC0642 at 5 μM or 20 nM Bafilomycin A1 (Sigma Aldrich) for 8 hours. Images were taken with an EVOS FL auto fluorescent microscope (Invitrogen) and quantitated using ImageJ software.

[6] = tested on: C006 and C092 melanoma cell lines; assay: Proliferation by IncuCyte Zoom real time cell imaging, less sensitive lines; format: cell-based, human; conditions: C006 and C092, 5 μM, 48 hours, compared to vehicle
Method: Four cell lines were then chosen for further analysis. These were C006 (NRAS mt), C092 (Triple wt), C008 (NF1 mt) and D05 (BRAF mt). These four lines are representatives of the 4 cutaneous melanoma genomic subtypes and include 2 lines (C008 and D05) that were very sensitive to the inhibitor and 2 lines that were less sensitive (C006 and C092). Proliferation of these lines was evaluated by real time cell imaging using IncuCyte Zoom where cells were grown for 48 hours in the presence or absence of 5 μM UNC0642.
For proliferation studies, cells (5×10^3) were seeded in 96-place wells and allowed to adhere overnight, and incubated in fresh growth medium in the presence of either the G9a inhibitor UNC0642 (Sigma Aldrich) or the vehicle control DMSO (Sigma Aldrich). Proliferation was evaluated via real-time imaging using IncuCyte Zoom (Essen BioScience) and/or by performing a 3-(4,5-dimethylthiazol-2-yl)-2,5-diphenyltetrazolium bromide ([…]) assay. After monitoring the cells, 20 μL of MTT (5 mg/mL; Sigma-Aldrich) was added. The plates were incubated at 37° C. for 3 h before the supernatants were removed, and 100 μL of isopropanol was added to each well. The absorbance value (optical density) of each well was measured at 570 nm.

[7] = tested on: melanoma cell lines; assay: Cell viability by MTT assay, melanoma cell lines; format: cell-based, human; conditions: 5 μM, 48 hours, vs vehicle (DMSO), FIG. 2
Method: as §1, §2

In the case of COc1cc2c(NC3CCN(C(C)C)CC3)nc(N3CCC(F)(F)CC3)nc2cc1OCCCN1CCCC1 [UNC0642], the “survival of the normal melanocyte cell culture” value [1] is reported as “unaffected”, the tumor weight ([2]; end-point, P<0.01, FIG. 10B) is reported as “statistically significantly reduced” and the tumor growth ([2]; intraperitoneally, P<0.05, FIG. 10A) is reported as “statistically significantly reduced”. For the same compound, the “expression of the MAP1LC3B gene in tumors (quantitative real time PCR)” value ([3]; compared to the vehicle treated group, P<0.01, FIG. 10C) was “statistically significant increase”, the “level of MAP1LC3B in the excised tumors (immunohistochemical analysis)” value ([3]; compared to vehicle, FIG. 10D) was “significantly increased” and the “increase in preG1 population” value ([4]; C092 (less G9a inhibitor responsive) cell line) was “absent”. The cell cycle status ([4]; D05 and C092, flow cytometric analysis) was “neither D05 nor C092 showed any changes in cell cycle status”, the “increase in cells in preG1 phase” value ([4]; G9a inhibitor responsive cells (D05)) was “greater than 4 fold” and the “cells in both G1 and G2/M phases” value [4] was “reduction”. The “distribution of EGFP-LC3B (punctate pattern)” value [5] was “increase in punctate pattern”, the proliferation [6] was “much less affected” and the “Cell survival (cell viability, MTT assay)” value [7] was “significantly attenuated”.
